This is an account of results in US7863446B2, “Heterocycles” (Orchid Research Laboratories Limited, priority 2006, dated 2011).

What is called inhibition is the percentage by which the read-out fell short of the control.

For test [1], the system named is TNF-α. The test can be described thus: In vitro measurement of TNF-α in human PBMC (LPS stimulated). Format: cell-based. The following applies: for inhibition at 1 µM: NA = No activity, read-out: TNF-α Inhibition (%) at Conc. (1 μM); for inhibition at 10 µM: read-out: TNF-α Inhibition (%) at Conc. (10 μM). As for the experimental part: In Vitro Measurement of Tumor Necrosis Factor Alpha (TNF-α)
This assay determines the effect of test compounds on the production of TNF α in human Peripheral Blood Mononuclear Cells (PBMC). Compounds were tested for their ability to inhibit the activity of TNF α in human PBMC. PBMC were isolated from blood (of healthy volunteers) using BD Vacutainer CPT™ (Cell preparation tube, BD Bio Science) and suspended in RPMI medium (Physiol. Res. 52: 593-598, 2003). The test compounds were pre-incubated with PBMC (0.5 million/incubation well) for 15 minutes at 37° C. and then stimulated with Lipopolysaccharide (Escherichia coli: B4; 1 μg/ml) for 18 hours at 37° C. in 5% CO2. The levels of TNF-α in the cell culture medium were estimated using enzyme-linked immunosorbent assay performed in a 96 well format as per the procedure of the manufacturer (Cayman Chemical, Ann Arbor, USA).

In test [2] the test system is IL-6. Kind of test: In vitro measurement of IL-6 in human PBMC (LPS stimulated). Type of test: cell-based. The following applies: for inhibition at 1 µM: read-out: IL-6 Inhibition (%) Conc. (1 μM); for inhibition at 10 µM: read-out: IL-6 Inhibition (%) Conc. (10 μM). As for the experimental part:
In Vitro Measurement of Interleukin-6(IL-6)
This assay determins the effect of test compounds on the production of IL-6 in human PBMC (Physiol. Res. 52: 593-598, 2003). Compounds were tested for their ability to inhibit the activity of IL-6 in human PBMC. PBMC were isolated from blood using BD Vacutainer CPT™ Cell preparation tube (BD Bio Science) and suspended in RPMI medium. The test compounds were pre-incubated with PBMC (0.5 million/incubation well) for 15 minutes at 37° C. and then stimulated with Lipopolysaccharide (Escherichia coli: B4; 1 μg/ml) for 18 hours at 37° C. in 5% CO2. The levels of IL-6 in cell culture medium were estimated using enzyme-linked immunosorbent assay performed in a 96 well format as per the procedure of the manufacturer (Cayman Chemical, Ann Arbor, USA).

Regarding `NNc1nc(C(F)(F)F)nc(-c2cccnc2)c1-c1ccccc1` [Example 11, 4-Hydrazino-5-phenyl-6-pyridin-3-yl-2-(trifluoromethyl)pyrimidine], in test [1], the inhibition at 1 µM turned out to be 12.7% and the inhibition at 10 µM was found to be 50.7%. As for `NNc1nc(C(F)(F)F)nc(-c2ccncc2)c1-c1ccccc1` [Example 12, 4-Hydrazino-5-phenyl-6-pyridin-4-yl-2-(trifluoromethyl)pyrimidine], in test [1], the inhibition at 1 µM amounted to 34.8% and the inhibition at 10 µM is 78.4%. For `NNc1nc(C(F)(F)F)nc(-c2ccncc2)c1-c1ccc(F)cc1` [Example 13, 5-(4-Fluorophenyl)-4-hydrazino-6-pyridin-4-yl-2-(trifluoromethyl)pyrimidine], in test [1], the inhibition at 1 µM came to 25.8% and the inhibition at 10 µM is 35.3%. Take `CS(=O)(=O)c1ccc(-c2nc(C(F)(F)F)nc(OS(=O)(=O)CCCCl)c2-c2ccccc2)cc1` [Example 19, 6-[4-(Methylsulfonyl)phenyl]-5-phenyl-2-(trifluoromethyl)pyrimidin-4-yl-3-chloropropane-1-sulfonate]: in test [2], the inhibition at 1 µM amounted to 27.9% and the inhibition at 10 µM came to 41.9%. Turning to `CS(=O)(=O)c1ccc(-c2nc(C(F)(F)F)nc(OS(=O)(=O)c3ccc(OC(F)(F)F)cc3)c2-c2ccccc2)cc1` [Example 24, 6-[4-(Methylsulfonyl)phenyl]-5-phenyl-2-(trifluoromethyl)pyrimidin-4-yl-4-trifluoromethoxybenzenesulfonate], in test [1], the inhibition at 1 µM stood at 53.9% and the inhibition at 10 µM worked out at 32.9%. As for `CS(=O)(=O)c1ccc(-c2nc(C(F)(F)F)nc(OS(=O)(=O)c3cccs3)c2-c2ccccc2)cc1` [Example 25, 6-[4-(Methylsulfonyl)phenyl]-5-phenyl-2-(trifluoromethyl)pyrimidin-4-yl thiophene-2-sulfonate], in test [1], the inhibition at 1 µM was 38.8% and the inhibition at 10 µM is 94%. Regarding `CS(=O)(=O)c1ccc(-c2nc(C(F)(F)F)nc(OS(=O)(=O)c3ccc(F)cc3)c2-c2ccccc2)cc1` [Example 26, 6-[4-(Methylsulfonyl)phenyl]-5-phenyl-2-(trifluoromethyl)pyrimidin-4-yl-4-fluorobenzenesulfonate], in test [1], the inhibition at 1 µM was 32.7% and the inhibition at 10 µM was found to be 50.8%. `CS(=O)(=O)c1ccc(-c2nc(C(F)(F)F)nc(OS(=O)(=O)c3ccccc3F)c2-c2ccccc2)cc1` [Example 27, 6-[4-(Methylsulfonyl)phenyl]-5-phenyl-2-(trifluoromethyl)pyrimidin-4-yl-2-fluorobenzenesulfonate]: in test [1], the inhibition at 1 µM came to 43.5% and the inhibition at 10 µM came out at 51.9%. Taken in the same sequence, the figures for `NS(=O)(=O)c1ccc(-c2nc(C(F)(F)F)nc(N3CCNCC3)c2-c2ccc(F)cc2)cc1` [Example 31, 4-[5-(4-Fluorophenyl)-6-piperazin-1-yl-2-(trifluoromethyl)pyrimidin-4-yl]benzenesulfonamide] were 37.4% and 62.5%. Consider `CNS(=O)(=O)c1ccc(-c2c(-c3ccc(S(C)(=O)=O)cc3)nc(C(F)(F)F)nc2N2CCOCC2)cc1` [Example 34, 4-{4-(Morpholin-4yl)-6-[4-(methylsulfonyl)phenyl]-2-(trifluoromethyl)pyrimidin-5-yl}-N-methylbenzenesulfonamide], for which the inhibition at 10 µM in test [1] was 80.9%.

As for `Cc1cnc(C(=O)N2CCN(c3nc(C(F)(F)F)nc(-c4ccc(S(C)(=O)=O)cc4)c3-c3ccccc3)CC2)cn1` [Example 36, 4-[4-(Methylsulfonyl)phenyl]-6-{4-[(5-methylpyrazin-2-yl)carbonyl]piperazin-1-yl}-5-phenyl-2-(trifluoromethyl)pyrimidine], in test [1], the inhibition at 1 µM was 51.3% and the inhibition at 10 µM turned out to be 26.9%. `CCOC(=O)C1CCN(c2nc(C(F)(F)F)nc(-c3ccc(F)cc3)c2-c2cccc(S(N)(=O)=O)c2)CC1` [Example 59, Ethyl-1-[5-(3-aminosulfonylphenyl)-6-(4-fluorophenyl)-2-(trifluoromethyl)pyrimidin-4-yl]piperidine-4-carboxylate]: in test [2], the inhibition at 1 µM is 26.1% and the inhibition at 10 µM was 36.8%. Taken in the same sequence, the figures for `CCOC(=O)C1CCN(c2nc(C(F)(F)F)nc(-c3ccccc3)c2-c2cccc(S(N)(=O)=O)c2)CC1` [Example 61, Ethyl 1-[6-phenyl-5-(3-aminosulfonylphenyl)1-2-(trifluoromethyl)pyrimidin-4-yl]piperidine-4-carboxylate] were 24.5% and 54.5%. `COc1cc(N2CCN(c3nc(C(F)(F)F)nc(-c4ccc(F)cc4)c3-c3cccc(S(N)(=O)=O)c3)CC2)nc(OC)n1` [Example 66, 4-[4-(2,6-Dimethoxypyrimidin-4-yl)piperazin-1-yl]-5-(3-aminosulfonylphenyl)-6-(4-fluorophenyl)-2-(trifluoromethyl)pyrimidine]: in test [1], the inhibition at 1 µM was determined as 57.9% and the inhibition at 10 µM was 80.7%. In the case of `CS(=O)(=O)N1CCN(c2nc(C(F)(F)F)nc(-c3ccc(F)cc3)c2-c2cccc(S(N)(=O)=O)c2)CC1` [Example 78, 3-[4-[4-(Methylsulfonyl)piperazin-1-yl]-6-(4-fluorophenyl)-2-(trifluoromethyl)pyrmidin-5-yl]benzenesulfonamide], in test [2], the inhibition at 1 µM turned out to be 22.3% and the inhibition at 10 µM was 25.3%. As for `NS(=O)(=O)c1cccc(-c2c(-c3ccccc3)nc(C(F)(F)F)nc2N2CCN(c3ccc([N+](=O)[O-])cn3)CC2)c1` [Example 117, 3-[6-{4-[5-(Nitro)pyridin-2-yl]piperazin-1-yl}-4-phenyl-2-(trifluoromethyl)pyrimidin-5-yl]benzenesulfonamide], in test [1], the inhibition at 1 µM was 69.7% and the inhibition at 10 µM was determined as 86.5%. Consider `CC(=O)Nc1ccc(N2CCN(c3nc(C(F)(F)F)nc(-c4ccc(S(C)(=O)=O)cc4)c3-c3ccc(F)cc3)CC2)nc1` [Example 119, 4-[5-(Acetylamino)pyridin-2-yl]piperazin-1-yl-5-(4-fluorophenyl)-6-[4-(methylsulfonyl)phenyl]-2-(trifluoromethyl)pyrimidine], for which, in test [1], the inhibition at 1 µM amounted to 88.9% and the inhibition at 10 µM was determined as 91.5%.
